Data from ChEMBL document CHEMBL5614430, “Discovery, synthesis and SAR of 2-acyl-1-biarylmethyl pyrazolidines, dual orexin receptor antagonists designed as fast and short-acting sleeping drugs” (Bioorg Med Chem, 2024).

Tests used:
[1] = in vitro; conditions: dog, MDCK-MDR1, Papp
[2] = physchem; conditions: buffer, pH 7.4
[3] = in vivo; conditions: Beagle, dog, po, 10 mg/kg
[4] = in vivo; conditions: Beagle, dog, iv, 1 mg/kg
[5] = in vivo; conditions: Beagle, dog, iv, 1 mg/kg; remark: listed apart in the source
[6] = in vivo; conditions: Beagle, dog, po, 10 mg/kg; remark: listed apart in the source
[7] = in vivo; conditions: Beagle, dog, po, 10 mg/kg; remark: listed apart in the source
[8] = in vivo; conditions: Beagle, dog, po, 10 mg/kg; remark: listed apart in the source

Q: With COc1cc(CN2[C@H]3c4ccccc4OC[C@H]3CN2C(=O)C2CCCCC2)cc(OC)c1 as the compound, how does the Papp A→B [1] read?
A: 17 ×10⁻⁶ cm/s

Q: What about the logD [2] of the same compound?
A: 3.8

Q: Which results are given for Cc1ccc(-n2nccn2)c(C(=O)N2CCCN2Cc2ccn(-c3ccccc3)n2)c1?
A: bioavailability [3]: 10%; Vd [4]: 0.8 L/kg; clearance [5]: 17 mL/min/kg; Cmax [6]: 287 ng/mL; AUC [7]: 1040 ng·h/mL; Tmax [8]: 3.55 h

Q: For O=C(C1CCCCC1)N1C[C@@H]2COc3ccccc3[C@@H]2N1Cc1cccc(-c2ncon2)c1, which logD [2] is on record?
A: > 4.1

Q: For Cn1ccc(C(=O)N2C[C@@H]3COc4cc(F)ccc4[C@@H]3N2Cc2cccc(-c3ncccn3)c2)n1 (racemic), which Papp A→B [1] is on record?
A: 0.78 ×10⁻⁶ cm/s

Q: And the logD [2]?
A: 2.8

Q: What does the source list for Cn1ccc(C(=O)N2C[C@@H]3CCc4cc(F)ccc4[C@@H]3N2Cc2cccc(-c3ncccn3)c2)n1 (racemic)?
A: Papp A→B [1]: 9.3 ×10⁻⁶ cm/s; logD [2]: 3.3
